Results on one compound are retold here after ChEMBL document CHEMBL5316328, “Discovery of AXL Degraders with Improved Potencies in Triple-Negative Breast Cancer (TNBC) Cells” (J Med Chem, 2023).

Molecules are shown by their SMILES. Activity calls are given as the source filed them. The calls are words filed in the database; no cut-off is given here.

The subject of experiment [1] is MDA-MB-231. The experiment can be described thus: Induction of apoptosis in human MDA-MB-231 cells assessed as late apoptotic cells at 100 nM incubated for 48 hrs by Annexin V-PE staining based flow cytometric analysis (reference value: 0.32 to 0.82%). The class given is functional.
For experiment [2], the target named is Protein cereblon/Tyrosine-protein kinase receptor UFO (Homo sapiens, UniProt P30530+Q96SW2). The experiment can be described thus: PROTAC activity at CRBN/AXL in human MDA-MB-436 cells expressing AXL assessed as induction of AXL degradation at 1.6 to 1000 nM incubated for 24 hrs by Western blot analysis. The class given is cell-based. The following applies: dose 1.6-1000 nM.

Experiment [3] concerns MDA-MB-231. The experiment can be described thus: Antitumor activity against human MDA-MB-231 cells xenografted in Balb/c nude mouse assessed as tumor growth inhibition at 20 mg/kg, ip administered for 22 days and measured 24 hrs post last dose relative to control. The class given is functional. Conditions: MDA-MB-231, 552 h, time 23 day, read-out: TGI.

Chain of Protein cereblon/Tyrosine-protein kinase receptor UFO (P30530 26-894 limits assumed): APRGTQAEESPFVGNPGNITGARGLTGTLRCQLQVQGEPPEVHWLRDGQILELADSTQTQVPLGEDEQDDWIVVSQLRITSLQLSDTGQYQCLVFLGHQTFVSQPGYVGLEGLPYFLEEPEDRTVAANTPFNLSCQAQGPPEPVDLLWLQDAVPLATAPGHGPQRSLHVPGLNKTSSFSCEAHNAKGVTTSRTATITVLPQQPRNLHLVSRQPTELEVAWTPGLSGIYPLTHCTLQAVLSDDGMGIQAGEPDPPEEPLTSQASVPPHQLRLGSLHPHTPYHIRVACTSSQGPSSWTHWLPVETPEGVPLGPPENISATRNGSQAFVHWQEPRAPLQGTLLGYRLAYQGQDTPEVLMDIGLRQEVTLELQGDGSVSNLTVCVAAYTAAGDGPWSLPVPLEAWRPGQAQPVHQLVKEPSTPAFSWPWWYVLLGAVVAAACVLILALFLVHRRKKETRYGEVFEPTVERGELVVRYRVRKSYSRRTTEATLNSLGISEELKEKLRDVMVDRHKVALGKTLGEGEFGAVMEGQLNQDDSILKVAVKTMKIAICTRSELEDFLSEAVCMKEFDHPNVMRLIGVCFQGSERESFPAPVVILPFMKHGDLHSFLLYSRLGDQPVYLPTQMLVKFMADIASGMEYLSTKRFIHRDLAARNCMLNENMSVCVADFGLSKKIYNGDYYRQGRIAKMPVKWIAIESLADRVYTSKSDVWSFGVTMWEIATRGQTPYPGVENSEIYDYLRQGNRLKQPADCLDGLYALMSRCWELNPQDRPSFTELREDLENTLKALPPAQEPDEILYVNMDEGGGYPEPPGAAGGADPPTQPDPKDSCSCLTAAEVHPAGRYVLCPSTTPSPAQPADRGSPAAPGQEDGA
Chain of Protein cereblon/Tyrosine-protein kinase receptor UFO (Q96SW2 whole entry partner): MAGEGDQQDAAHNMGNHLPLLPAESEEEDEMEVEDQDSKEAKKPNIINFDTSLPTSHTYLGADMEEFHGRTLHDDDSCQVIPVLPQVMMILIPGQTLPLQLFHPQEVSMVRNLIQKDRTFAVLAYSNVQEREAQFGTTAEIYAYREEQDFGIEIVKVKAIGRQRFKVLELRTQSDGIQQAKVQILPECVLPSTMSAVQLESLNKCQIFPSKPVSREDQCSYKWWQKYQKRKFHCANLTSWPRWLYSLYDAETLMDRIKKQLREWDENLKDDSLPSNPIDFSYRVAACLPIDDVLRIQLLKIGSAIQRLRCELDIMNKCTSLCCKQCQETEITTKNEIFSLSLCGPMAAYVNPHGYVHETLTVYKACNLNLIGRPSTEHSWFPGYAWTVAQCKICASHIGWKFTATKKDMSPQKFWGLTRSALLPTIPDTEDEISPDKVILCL

For `CCc1ccc2c(c1)c(=O)c(C(=O)Nc1ccc(Oc3ncnc4cc(OCCCCCC(=O)Nc5ccc6c(c5)CN(C5CCC(=O)NC5=O)C6=O)c(OC)cc34)c(F)c1)c(C)n2C` (stereo not drawn), the Activity in experiment [1] was found to be 0.88%. The outcome in experiment [2] was Active. In experiment [3], the inhibition in vivo at 20 mg/kg came out at 62.5%.
